Measured values from ChEMBL document CHEMBL1201862, “PubChem BioAssay data set” (2004).
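These data come from cells grown in 96-well plates and exposed to compound for 48 hours at five concentrations. The concentration for 50% growth inhibition is given as GI50.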 Activity calls are given as the source filed them. No stated cut-off is given here; in the data, active = GI50 up to about 1.1 µM and inactive = higher.

What was measured:
Experiment in all cases: growth of human tumour cells (NCI), 48 h
786-0 = tested on: 786-0
A549 = tested on: A549
BT-549 = tested on: BT-549
CAKI-1 = tested on: CAKI-1
CCRF-CEM = tested on: CCRF-CEM
COLO 205 = tested on: COLO 205
DU-145 = tested on: DU-145
EKVX = tested on: EKVX
HCT-116 = tested on: HCT-116
HCT-15 = tested on: HCT-15
HL-60 = tested on: HL-60
HOP-62 = tested on: HOP-62
HOP-92 = tested on: HOP-92
HT-29 = tested on: HT-29
Hs-578T = tested on: Hs-578T
IGROV-1 = tested on: IGROV-1
K562 = tested on: K562
KM12 = tested on: KM12
LOX IMVI = tested on: LOX IMVI
M14 = tested on: M14
MCF7 = tested on: MCF7
MDA-MB-231 = tested on: MDA-MB-231
MDA-MB-435 = tested on: MDA-MB-435
MDA-N = tested on: MDA-N
MOLT-4 = tested on: MOLT-4
Malme-3M = tested on: Malme-3M
NCI-H226 = tested on: NCI-H226
NCI-H23 = tested on: NCI-H23
NCI-H460 = tested on: NCI-H460
NCI-H522 = tested on: NCI-H522
NCI/ADR-RES = tested on: NCI/ADR-RES
OVCAR-3 = tested on: OVCAR-3
OVCAR-4 = tested on: OVCAR-4
OVCAR-5 = tested on: OVCAR-5
OVCAR-8 = tested on: OVCAR-8
PC-3 = tested on: PC-3
RPMI-8226 = tested on: RPMI-8226
SF-268 = tested on: SF-268
SF-295 = tested on: SF-295
SK-MEL-28 = tested on: SK-MEL-28
SK-MEL-2 = tested on: SK-MEL-2
SK-MEL-5 = tested on: SK-MEL-5
SN12C = tested on: SN12C
SNB-19 = tested on: SNB-19
SW-620 = tested on: SW-620
T47D = tested on: T47D
TK-10 = tested on: TK-10
U-251 = tested on: U-251
UACC-257 = tested on: UACC-257
UACC-62 = tested on: UACC-62
UO-31 = tested on: UO-31
A498 = tested on: A498
ACHN = tested on: ACHN
RXF 393 = tested on: RXF 393
SF-539 = tested on: SF-539
SK-OV-3 = tested on: SK-OV-3
SNB-75 = tested on: SNB-75
HCC 2998 = tested on: HCC 2998
SR = tested on: SR

Measured: GI50

CC(C)=NN/C(=N\c1ccc(Cl)cc1)NS(=O)(=O)c1cc(Cl)c(Oc2ccc([N+](=O)[O-])cc2Cl)c(Cl)c1
inactive: 786-0 > 100 µM | A549 76.7 µM | BT-549 > 100 µM | CAKI-1 > 100 µM | CCRF-CEM 78.5 µM | COLO 205 > 100 µM | DU-145 > 100 µM | EKVX 29.4 µM | HCT-116 > 100 µM | HL-60 > 100 µM | HOP-62 > 100 µM | HOP-92 51.8 µM | HT-29 > 100 µM | Hs-578T 81.7 µM | IGROV-1 > 100 µM | K562 53.6 µM | KM12 > 100 µM | LOX IMVI > 100 µM | M14 75.9 µM | MCF7 > 100 µM | MDA-MB-231 60.1 µM | MDA-MB-435 79.3 µM | MDA-N > 100 µM | MOLT-4 25.4 µM | Malme-3M 70 µM | NCI-H226 > 100 µM | NCI-H23 > 100 µM | NCI-H460 > 100 µM | NCI-H522 91 µM | NCI/ADR-RES > 100 µM | OVCAR-3 > 100 µM | OVCAR-4 67.3 µM | OVCAR-5 > 100 µM | OVCAR-8 > 100 µM | PC-3 87.9 µM | RPMI-8226 29.6 µM | SF-268 > 100 µM | SF-295 86.1 µM | SK-MEL-28 > 100 µM | SK-MEL-2 > 100 µM | SK-MEL-5 > 100 µM | SN12C > 100 µM | SNB-19 > 100 µM | SW-620 > 100 µM | T47D 22.2 µM | TK-10 > 100 µM | U-251 > 100 µM | UACC-257 > 100 µM | UACC-62 > 100 µM | UO-31 56.8 µM
> 100 µM: HCT-15

CCOC(=O)c1nc2ccc(C(F)(F)F)cc2nc1Oc1ccc(OC)cc1
inactive: 786-0 > 100 µM | A498 > 100 µM | A549 > 100 µM | ACHN > 100 µM | BT-549 > 100 µM | CAKI-1 9.42 µM | CCRF-CEM > 100 µM | COLO 205 > 100 µM | DU-145 > 100 µM | EKVX 55.2 µM | HCT-116 > 100 µM | HOP-62 > 100 µM | HOP-92 82.2 µM | HT-29 > 100 µM | Hs-578T > 100 µM | IGROV-1 > 100 µM | K562 > 100 µM | KM12 > 100 µM | LOX IMVI > 100 µM | M14 > 100 µM | MCF7 > 100 µM | MDA-MB-231 > 100 µM | MDA-MB-435 > 100 µM | MDA-N > 100 µM | MOLT-4 > 100 µM | Malme-3M 62.8 µM | NCI-H226 > 100 µM | NCI-H460 > 100 µM | NCI/ADR-RES > 100 µM | OVCAR-3 > 100 µM | OVCAR-4 > 100 µM | OVCAR-5 > 100 µM | OVCAR-8 > 100 µM | PC-3 > 100 µM | RPMI-8226 > 100 µM | RXF 393 > 100 µM | SF-268 > 100 µM | SF-295 > 100 µM | SF-539 > 100 µM | SK-MEL-28 > 100 µM | SK-MEL-2 > 100 µM | SK-MEL-5 > 100 µM | SK-OV-3 > 100 µM | SN12C > 100 µM | SNB-19 > 100 µM | SNB-75 > 100 µM | SW-620 > 100 µM | T47D > 100 µM | TK-10 > 100 µM | U-251 > 100 µM | UACC-257 > 100 µM | UACC-62 > 100 µM | UO-31 > 100 µM
> 100 µM: HCT-15

C=CCOCn1cc(C)c(=O)[nH]c1=O
inactive: 786-0 > 100 µM | A498 > 100 µM | A549 > 100 µM | ACHN > 100 µM | BT-549 > 100 µM | CAKI-1 > 100 µM | CCRF-CEM > 100 µM | COLO 205 > 100 µM | DU-145 > 100 µM | EKVX > 100 µM | HCC 2998 > 100 µM | HCT-116 > 100 µM | HL-60 > 100 µM | HOP-62 > 100 µM | HT-29 > 100 µM | Hs-578T > 100 µM | IGROV-1 > 100 µM | K562 > 100 µM | KM12 > 100 µM | LOX IMVI > 100 µM | M14 > 100 µM | MCF7 > 100 µM | MDA-MB-231 > 100 µM | MDA-MB-435 > 100 µM | MDA-N > 100 µM | MOLT-4 > 100 µM | Malme-3M > 100 µM | NCI-H226 > 100 µM | NCI-H23 > 100 µM | NCI-H460 > 100 µM | NCI-H522 29.6 µM | OVCAR-8 > 100 µM | PC-3 > 100 µM | RPMI-8226 > 100 µM | SF-268 > 100 µM | SF-295 > 100 µM | SF-539 > 100 µM | SK-MEL-28 > 100 µM | SK-MEL-5 > 100 µM | SK-OV-3 > 100 µM | SN12C > 100 µM | SNB-19 > 100 µM | SNB-75 > 100 µM | SR > 100 µM | SW-620 > 100 µM | T47D > 100 µM | TK-10 > 100 µM | UACC-257 > 100 µM | UACC-62 > 100 µM | UO-31 > 100 µM
> 100 µM: HCT-15
